{
  "source": "patent US8263040B2",
  "about": "“Metal chelates having a perfluorinated PEG radical, processes for their preparation, and their use” (Bayer Schering Pharma AG, priority 2006, dated 2012)",
  "key": {"mice": {"system": "mice", "test": "Acute toxicity after single intravenous administration in mice (exploratory)", "assay_type": "in vivo", "details": "injection rate 2 ml/min, observation period 7 days", "protocol": "After intravenous administration of the substances of Examples 2c), 21 c) and 22 c) in mice (n=3; injection rate: 2 ml/min), the acute systemic tolerability (LD50) was determined in an exploratory manner. In each case, a number of doses were investigated using an observation period of 7 days. The average acute toxicities to be expected were 2.5 mmol of Gd/kg of body weight for the substance from Example 2c) and >10.0 mmol of Gd/kg of body weight for the substances from Examples 21c) and 22 c)."}, "[1]": {"test": "Plasma kinetics after intravenous administration in rats (ICP-AES, WinNonlin)", "assay_type": "in vivo", "details": "i.v., 50 μmol of total gadolinium/kg", "protocol": "After intravenous administration of 50 μmol of total gadolinium/kg of body weight of the substances from Examples 2c), 21 c) and 22 c) in rats (n=3), blood samples were taken at different points in time (up to 24 h p.i.) by means of a catheter in the common carotid artery, and the metal content was determined by means of atomic emission spectrometry (ICP-AES) and converted to plasma values by means of a conversion factor (0.625). The pharmacokinetic parameters (Table 4) were calculated from the plasma concentrations by means of special software (WinNonlin)."}, "popliteal lymph nodes": {"system": "popliteal lymph nodes", "test": "MRT demonstration of lymph nodes after intravenous administration in rats", "assay_type": "in vivo", "details": "i.v., 50 μmol of Gd/kg, 1.5 T, early points in time (up to 60 min p.i.)", "excerpt": "The figures show exemplary MR shots of popliteal lymph nodes at different points in time after intravenous administration of 50 μmol of Gd/kg of body weight of the substance from Example 2c) in FIG. 1, of the substance from Example 21 c) in FIG. 2, and of the substance from Example 22 c) in FIG. 3 in rats."}, "[2]": {"test": "Relaxivity: T1 and T2 relaxation times of water and plasma (bovine), NMR pulse spectrometer (Minispec PC 20)", "assay_type": "physicochemical", "details": "for Relaxivity R1 / Relaxivity R2: 40° C., 0.47 T", "protocol": "The T1 and T2 relaxation times of water and plasma (bovine) having increasing concentrations of the substance from Example 2c) contained therein were determined at 40° C. using an NMR pulse spectrometer (Minispec PC 20) at 0.47 T (Table 1).\nFrom the R1 relaxivities in water at high and low concentrations, a critical micelle formation concentration (CMC) of 0.02 mmol of Gd/I can be determined."}, "histamine": {"system": "histamine", "test": "Release of histamine after single intravenous administration in rats (plasma histamine, ELISA)", "assay_type": "in vivo", "details": "for Histamine, baseline: before contrast agent administration; for Histamine, 10 min p.i. / Histamine, 30 min p.i. / Histamine, 60 min p.i.: i.v.", "protocol": "After intravenous administration of the substances from Examples 2c) and 22 c) in rats (n=3), the release of histamine was determined at different points in time. For this, blood was taken from the carotid artery before and 10, 30 and 60 minutes after contrast agent administration, and the histamine contained in the plasma was determined by means of an ELISA system. The histamine values measured can be seen in Table 2. The histamine blank values in the conscious rats were in the normal range known from the literature."}, "[3]": {"test": "Excretion after intravenous administration in rats (ICP-AES)", "assay_type": "in vivo", "details": "i.v., 50 μmol of total gadolinium/kg; for Gd content, rest of body: 14 days after administration; for Gd content, faeces / Gd content, urine: up to 14 days after administration", "protocol": "After intravenous administration of 50 μmol of total gadolinium/kg of body weight of substances from Examples 2c), 21 c) and 22 c) in rats (n=3), the metal content was determined fractionally up to 14 days after administration by means of atomic emission spectrometry (ICP-AES) in the excretion medium urine and faeces, and in the body (rest of body) (Table 3)."}, "[4]": {"details": "in vivo; cited from earlier work"}, "[5]": {"details": "plasma (bovine), Gd concentration 0.271-1.086 mmol/l"}, "[6]": {"details": "water, Gd concentration 0.000-0.009 mmol/l"}, "[7]": {"details": "water, Gd concentration 0.020-1.099 mmol/l"}},
  "data": [
    {"substance": "1,4,7-Tris(carboxylatomethyl)-10-[(3-aza-4-oxo-5-methyl-5-yl)-acid N-(1H,1H,2H,2H,4H,4H,-3,6,9,12-tetraoxaperfluorohexadecyl)-N-(2-methoxyethyl)amide]-1,4,7,10-tetraazacyclododecane, Gd complex [Example 2c]", "values": [
      {"measurement": "acute systemic tolerability (LD50)", "setting": "mice", "value": "2.5 mmol of Gd/kg of body weight"},
      {"measurement": "Vc", "setting": "[1]", "value": "0.05 ± 0.00", "unit": "L/kg"},
      {"measurement": "Vd ss", "setting": "[1]", "value": "0.08 ± 0.01", "unit": "L/kg"},
      {"measurement": "α-t½", "setting": "[1]", "value": "18.7 ± 2.0", "unit": "min"},
      {"measurement": "β-t½", "setting": "[1]", "value": "1.2 ± 0.2", "unit": "h"},
      {"measurement": "signal in the functional lymph node tissue (T1-weighted MR shots)", "setting": "popliteal lymph nodes", "value": "strong signal increase"},
      {"measurement": "critical micelle formation concentration (CMC)", "setting": "[2]; from the R1 relaxivities in water at high and low concentrations", "value": "0.02 mmol of Gd/I"},
      {"measurement": "protein bond (relaxivity in plasma greater than in water)", "setting": "[2]; plasma (bovine) versus water", "value": "indicates a protein bond"},
      {"measurement": "Relaxivity R1", "setting": "[2]; [5]", "value": "26.0 ± 0.5", "unit": "L/mmol/s"},
      {"measurement": "Relaxivity R2", "setting": "[2]; [5]", "value": "35.1 ± 0.3", "unit": "L/mmol/s"},
      {"measurement": "Relaxivity R1", "setting": "[2]; [6]", "value": "5.3 ± 0.4", "unit": "L/mmol/s"},
      {"measurement": "Relaxivity R2", "setting": "[2]; [6]", "value": "5.3 ± 1.2", "unit": "L/mmol/s"},
      {"measurement": "Relaxivity R1", "setting": "[2]; [7]", "value": "17.8 ± 0.1", "unit": "L/mmol/s"},
      {"measurement": "Relaxivity R2", "setting": "[2]; [7]", "value": "16.3 ± 0.2", "unit": "L/mmol/s"},
      {"measurement": "Histamine, baseline", "setting": "histamine", "value": "3 ± 2", "unit": "ng/mL"},
      {"measurement": "Histamine, 10 min p.i.", "setting": "histamine", "value": "4 ± 4", "unit": "ng/mL"},
      {"measurement": "Histamine, 30 min p.i.", "setting": "histamine", "value": "5 ± 3", "unit": "ng/mL"},
      {"measurement": "Histamine, 60 min p.i.", "setting": "histamine", "value": "3 ± 2", "unit": "ng/mL"},
      {"measurement": "Gd content, rest of body", "setting": "[3]", "value": "0.2 ± 0.3", "unit": "% dose"},
      {"measurement": "Gd content, faeces", "setting": "[3]", "value": "92.9 ± 1.5", "unit": "% dose"},
      {"measurement": "Gd content, urine", "setting": "[3]", "value": "0.8 ± 0.2", "unit": "% dose"}
    ]},
    {"substance": "1,4,7-Tris(carboxylatomethyl)-10-[(3-aza-4-oxo-5-methyl-5-yl)acid N-(1H,1H,2H,2H,4H,4H,-3,6,9,12-tetraoxaperfluorohexadecyl)-N-{2-[2-(2-methoxyethoxy)ethoxy]-ethyl}amide]1,4,7,10-tetraazacyclododecane, Gd complex [Example 22c]", "values": [
      {"measurement": "Vc", "setting": "[1]", "value": "0.04 ± 0.00", "unit": "L/kg"},
      {"measurement": "Vd ss", "setting": "[1]", "value": "0.06 ± 0.00", "unit": "L/kg"},
      {"measurement": "α-t½", "setting": "[1]", "value": "23.6 ± 0.6", "unit": "min"},
      {"measurement": "β-t½", "setting": "[1]", "value": "1.8 ± 0.3", "unit": "h"},
      {"measurement": "signal in the functional lymph node tissue (T1-weighted MR shots)", "setting": "popliteal lymph nodes", "value": "strong signal increase"},
      {"measurement": "Histamine, baseline", "setting": "histamine", "value": "3 ± 1", "unit": "ng/mL"},
      {"measurement": "Histamine, 10 min p.i.", "setting": "histamine", "value": "7 ± 3", "unit": "ng/mL"},
      {"measurement": "Histamine, 30 min p.i.", "setting": "histamine", "value": "4 ± 1", "unit": "ng/mL"},
      {"measurement": "Histamine, 60 min p.i.", "setting": "histamine", "value": "4 ± 1", "unit": "ng/mL"},
      {"measurement": "Gd content, rest of body", "setting": "[3]", "value": "0.0 ± 0.0", "unit": "% dose"},
      {"measurement": "Gd content, faeces", "setting": "[3]", "value": "83.4 ± 2.6", "unit": "% dose"},
      {"measurement": "Gd content, urine", "setting": "[3]", "value": "1.8 ± 0.1", "unit": "% dose"}
    ]},
    {"substance": "1,4,7-Tris(carboxylatomethyl)-10-{(3-aza-4-oxo-5-methyl-5-yl)-acid-N-(1H,1H,2H,2H,4H,4H,-3,6,9,12-tetraoxaperfluorohexadecyl)-N-[2-(2-methoxyethoxy)ethyl]amide}-1,4,7,10-tetraazacyclododecane, Gd complex [Example 21c]", "values": [
      {"measurement": "Vc", "setting": "[1]", "value": "0.04 ± 0.00", "unit": "L/kg"},
      {"measurement": "Vd ss", "setting": "[1]", "value": "0.05 ± 0.00", "unit": "L/kg"},
      {"measurement": "α-t½", "setting": "[1]", "value": "28.4 ± 1.5", "unit": "min"},
      {"measurement": "β-t½", "setting": "[1]", "value": "1.3 ± 0.2", "unit": "h"},
      {"measurement": "signal in the functional lymph node tissue (T1-weighted MR shots)", "setting": "popliteal lymph nodes", "value": "strong signal increase"},
      {"measurement": "Gd content, rest of body", "setting": "[3]", "value": "0.0 ± 0.0", "unit": "% dose"},
      {"measurement": "Gd content, faeces", "setting": "[3]", "value": "84.9 ± 0.7", "unit": "% dose"},
      {"measurement": "Gd content, urine", "setting": "[3]", "value": "3.8 ± 0.1", "unit": "% dose"}
    ]},
    {"substance": "Mn-TPPS", "values": [
      {"measurement": "LD50", "setting": "[4]", "value": 0.5, "unit": "mmol/kg"},
      {"measurement": "dose at which an action commences", "setting": "[4]", "value": 0.2, "unit": "mmol/kg"}
    ]}
  ]
}
